The values below come from patent US20240294499A1, “TARGETED PROTEIN DEGRADATION USING BIFUNCTIONAL COMPOUNDS THAT BIND UBIQUITIN LIGASE AND TARGET MCL-1 PROTEIN” (Captor Therapeutics S.A., priority 2021, published 2024).

In test [1] the target is T1, [MCL-1]-[compound of formula (I)]-[CRBN/DDB1] complex (Homo sapiens, UniProt Q07820+Q96SW2). Description: HTRF ternary complex assay. The following applies: ternary complex formation; read-out: HTRF ternary complex Average pEC50 by molecule (converted). It is filed as binding. The procedure: The effect of the bifunctional compounds of the invention on the formation of a ternary complex composed of [MCL-1]-[compound of formula (I)]-[CRBN/DDB1] was investigated.
T1 sequence (Q07820 whole entry): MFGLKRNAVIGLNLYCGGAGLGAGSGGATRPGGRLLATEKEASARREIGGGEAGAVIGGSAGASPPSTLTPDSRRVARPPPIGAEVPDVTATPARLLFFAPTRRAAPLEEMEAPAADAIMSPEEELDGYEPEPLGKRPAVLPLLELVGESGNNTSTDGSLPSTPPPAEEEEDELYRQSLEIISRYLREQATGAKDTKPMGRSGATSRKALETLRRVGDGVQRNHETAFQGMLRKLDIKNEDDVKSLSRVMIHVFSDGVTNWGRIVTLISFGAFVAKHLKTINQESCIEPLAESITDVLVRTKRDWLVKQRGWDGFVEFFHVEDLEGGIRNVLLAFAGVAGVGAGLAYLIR
T1 sequence (Q96SW2 whole entry): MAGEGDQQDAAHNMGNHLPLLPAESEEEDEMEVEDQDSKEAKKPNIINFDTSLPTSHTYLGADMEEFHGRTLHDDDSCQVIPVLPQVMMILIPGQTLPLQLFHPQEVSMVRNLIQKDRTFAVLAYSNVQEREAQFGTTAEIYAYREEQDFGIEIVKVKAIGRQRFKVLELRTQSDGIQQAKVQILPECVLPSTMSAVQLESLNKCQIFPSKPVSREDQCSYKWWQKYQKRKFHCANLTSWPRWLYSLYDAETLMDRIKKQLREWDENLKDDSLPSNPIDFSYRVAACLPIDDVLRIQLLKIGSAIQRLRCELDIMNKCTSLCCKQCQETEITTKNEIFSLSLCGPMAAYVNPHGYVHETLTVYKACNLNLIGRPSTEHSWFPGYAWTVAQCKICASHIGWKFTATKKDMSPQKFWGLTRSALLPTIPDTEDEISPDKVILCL
T1 sequence (Q16531 whole entry partner): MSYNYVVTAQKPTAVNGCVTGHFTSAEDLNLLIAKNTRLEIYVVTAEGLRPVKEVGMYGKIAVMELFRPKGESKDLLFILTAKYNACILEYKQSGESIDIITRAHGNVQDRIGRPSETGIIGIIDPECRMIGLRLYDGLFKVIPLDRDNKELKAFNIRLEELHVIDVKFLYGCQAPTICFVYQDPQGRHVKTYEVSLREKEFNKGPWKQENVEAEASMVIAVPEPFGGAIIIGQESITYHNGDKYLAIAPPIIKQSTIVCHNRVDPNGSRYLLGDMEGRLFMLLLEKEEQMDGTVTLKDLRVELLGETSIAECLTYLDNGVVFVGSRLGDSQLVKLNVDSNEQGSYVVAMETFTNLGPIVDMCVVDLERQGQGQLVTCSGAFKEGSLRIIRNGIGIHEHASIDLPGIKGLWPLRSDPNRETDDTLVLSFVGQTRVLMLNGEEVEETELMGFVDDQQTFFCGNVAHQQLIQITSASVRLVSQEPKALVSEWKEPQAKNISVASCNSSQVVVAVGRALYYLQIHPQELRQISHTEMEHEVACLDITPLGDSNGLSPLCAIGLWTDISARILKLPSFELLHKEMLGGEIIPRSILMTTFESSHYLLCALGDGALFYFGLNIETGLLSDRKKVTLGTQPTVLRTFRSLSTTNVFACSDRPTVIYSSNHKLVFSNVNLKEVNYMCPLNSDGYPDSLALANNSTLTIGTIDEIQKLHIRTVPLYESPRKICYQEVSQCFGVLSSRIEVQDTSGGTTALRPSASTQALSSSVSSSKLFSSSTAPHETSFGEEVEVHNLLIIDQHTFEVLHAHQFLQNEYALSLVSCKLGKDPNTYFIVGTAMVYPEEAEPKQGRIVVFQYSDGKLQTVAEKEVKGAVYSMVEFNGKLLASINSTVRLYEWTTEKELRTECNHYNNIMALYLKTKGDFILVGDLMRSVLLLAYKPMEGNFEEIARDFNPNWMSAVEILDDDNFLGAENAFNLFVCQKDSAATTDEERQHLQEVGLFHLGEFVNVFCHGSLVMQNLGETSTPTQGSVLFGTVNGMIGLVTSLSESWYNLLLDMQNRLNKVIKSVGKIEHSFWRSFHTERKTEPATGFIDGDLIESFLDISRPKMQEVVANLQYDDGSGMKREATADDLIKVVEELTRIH
Mix of protein solution were prepared: • 48 nM hMcl-1 and 105.6 nM CRBN was prepared in PPI Europium detection buffer with 2 mM DTT. • Acceptor and donor stock solutions were diluted 100 times in PPI Europium detection buffer. Equal volumes of both reagents were mixed. Finally giving 3 nM of Streptavidin-Eu cryptate […] and 6.67 nM of Anti-6× his-d2 […].
5 μl of protein mix was dispensed to all wells. The tested compounds in dose-response were dispensed onto a white 384-well low volume plate (Greiner, 784075). DMSO was backfilled to all wells, resulting in a final DMSO content of 0.5%. Wells containing only DMSO served as background. Next, 5 μl of solution with donor and acceptor was added to the wells.
The plate was sealed with transparent film and shaken using a VibroTurbulator for 60 see at level 3. The plate was then spun down shortly (10 s, 1000 rcf) and incubated at 25° C. for 180 min.
The read-out was performed with plate reader (Pherastar, BMG Labtech) in time resolved fluorescence mode. Filterset: TR 337 665 620.
The results were analyzed as follows: • 1) an average of fluorescence for background signal was calculated and used as a negative control; • 2) raw fluorescence values for tested compounds were normalized against negative controls; • 3) bell shape curve was fitted to a gaussian distribution using a non-linear least squares Gauss-Newton algorithm; • 4) EC50 and pEC50 values were determined.
In general terms: Time-resolved FRET reads energy transfer from a long-lived donor to a nearby acceptor.

Test [2] relates to ARH-77 cells. Briefly: Cell viability assay (CellTiter-Glo), ARH-77. It is filed as cell-based. The following applies: Homo sapiens, ARH-77, 24 hours incubation, 1% FBS, read-out: Average pIC50 by molecule ARH-77 (converted). The source says:
The effect of various compounds of the invention on the viability of OPM-2, MV-4-11 and ARH-77 cell lines was investigated, using the CTG protocol described below.
OPM-2 and MV-4-11 cell lines are derived from multiple myeloma and acute myeloid leukaemia, respectively. Both cell lines are described in the literature as MCL-1 dependent lines, as opposed to lymphoblast-like ARH-77 cell line, which is described as independent of MCL-1 (Tron A E et al. Nat Commun. 2018; 9: 5341; Caenepeel S et al. Cancer Discov. 2018 December; 8(12):1582-1597).
Cells (OPM-2, MV-4-11 or ARH-77) were seeded on […] in a growth medium with FBS reduced to 1%. Next, compound stocks were pre-diluted in DMSO and added directly to the cells growth medium (final DMSO concentration: 0.5%). Compound concentrations used in this assay: 1/3 dilutions starting at 30 uM (9 to 12 points).
After 24 hours of incubation, cell viability was evaluated using CellTiter-Glo Luminescent Cell Viability Assay (Promega, cat #G7572). Luminescence signal was measured using a CLARIOstar Plus Multi-Mode Microplate Reader (574-590 nm).
Results were normalized to DMSO control.

Test [3] concerns MV-4-11 cells. Description: Cell viability assay (CellTiter-Glo), MV-4-11. It is filed as cell-based. Conditions: Homo sapiens, MV4-11, 24 hours incubation, 1% FBS, read-out: Average pIC50 by molecule MV-4-11 (converted). A digest of the protocol: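 Luminescent ATP readout (CellTiter-Glo) at 24 hours measured viability, expressed relative to DMSO-treated wells. Compound was added directly to the medium as a 9–12-point threefold series starting at 30 uM, at 0.5% final DMSO. The medium contained FBS reduced to 1%.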

In test [4] the target is T1, [MCL-1]-[compound of formula (I)]-[CRBN/DDB1] complex. Briefly: AlphaLISA dose response ternary complex formation assay. The class given is binding. The following applies: read-out: AlphaLISA dose response Average pEC50 by molecule (converted). The method in brief:
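EC50 comes from dose–response of AlphaLISA luminescence (excitation 680, emission 615 nm), normalised between DMSO background and an internal positive control, with concentrations past the hook point dropped. Ternary complex formed by mixing bead-bound biotin-hMCL-1 and His-CRBN/DDB1 (protein solutions 40 and 200 nM) with compound in 2% DMSO, 30 min, 25 °C.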

As to `Cc1nn(C)c(C)c1-c1c(Cl)ccc2c(CCCOc3cccc4cc(F)ccc34)c(C(=O)O)n(CCN3CC4(CCN(C(=O)COc5cccc6c5CN(C5CCC(=O)NC5=O)C6=O)CC4)C3)c12` (stereo not shown) [Compound 302, 6-Chloro-1-(2-(7-(2-((2-(2,6-dioxopiperidin-3-yl)-1-oxoisoindolin-4-yl)oxy)acetyl)-2,7-diazaspiro[3.5]nonan-2-yl)ethyl)-3-(3-((6-fluoronaphthalen-1-yl)oxy)propyl)-7-(1,3,5-trimethyl-1H-pyrazol-4-yl)-1H-indole-2-carboxylic acid], in test [1], the EC50 is under 0.01 µM.
For the compound `Cc1cc(OCCCc2c(C(=O)NS(=O)(=O)CCNC(=O)CCOCCOCCNc3cccc4c3C(=O)N(C3CCC(=O)NC3=O)C4=O)n(C)c3c(-c4c(C)nn(C)c4C)c(Cl)ccc23)cc(C)c1Cl` (stereo not shown) [Compound 252, 6-chloro-3-(3-(4-chloro-3,5-dimethylphenoxy)propyl)-N-((2-(3-(2-(2-((2-(2,6-dioxopiperidin-3-yl)-1,3-dioxoisoindolin-4-yl)amino)ethoxy)ethoxy)propanamido)ethyl)sulfonyl)-1-methyl-7-(1,3,5-trimethyl-1H-pyrazol-4-yl)-1H-indole-2-carboxamide], the EC50 in test [1] is under 0.1 µM.
Same read-out and setting: the value for `Cc1nn(C)c(C)c1-c1c(Cl)ccc2c(CCCOc3cccc4cc(F)ccc34)c(C(=O)O)n(CCN3CC4(CCN(C(=O)COc5cccc6c5CN(C5CCC(=O)NC5=O)C6=O)C4)C3)c12` (stereo not shown) [Compound 305, 6-Chloro-1-(2-(6-(2-((2-(2,6-dioxopiperidin-3-yl)-1-oxoisoindolin-4-yl)oxy)acetyl)-2,6-diazaspiro[3.4]octan-2-yl)ethyl)-3-(3-((6-fluoronaphthalen-1-yl)oxy)propyl)-7-(1,3,5-trimethyl-1H-pyrazol-4-yl)-1H-indole-2-carboxylic acid] was under 0.1 µM; that for `Cc1noc(C)c1-c1c(Cl)ccc2c(CCCOc3cccc4cc(F)ccc34)c(C(=O)O)n(CCN3CCN(C(=O)COc4cccc5c4CN(C4CCC(=O)NC4=O)C5=O)CC3)c12` (stereo not shown) [Compound 347, 6-Chloro-7-(3,5-dimethylisoxazol-4-yl)-1-(2-(4-(2-((2-(2,6-dioxopiperidin-3-yl)-1-oxoisoindolin-4-yl)oxy)acetyl)piperazin-1-yl)ethyl)-3-(3-((6-fluoronaphthalen-1-yl)oxy)propyl)-1H-indole-2-carboxylic acid] was under 0.1 µM.
`Cc1nn(C)c(C)c1-c1c(Cl)ccc2c(CCCOc3cccc4cc(F)ccc34)c(C(=O)O)n(CCN3CCN(C(=O)[C@H](C)Oc4cccc5c4C(=O)N(C4CCC(=O)NC4=O)C5=O)CC3)c12` (mixture of isomers) [Compound 318, 6-Chloro-1-(2-(4-((2S)-2-((2-(2,6-dioxopiperidin-3-yl)-1,3-dioxoisoindolin-4-yl)oxy)propanoyl)piperazin-1-yl)ethyl)-3-(3-((6-fluoronaphthalen-1-yl)oxy)propyl)-7-(1,3,5-trimethyl-1H-pyrazol-4-yl)-1H-indole-2-carboxylic acid]: the IC50 in test [2] is over 10 µM; in test [3], at most 0.0316 µM. Further, in test [4], the EC50 was under 0.1 µM.
On the same counts, the results for `Cc1nn(C)c(C)c1-c1c(Cl)ccc2c(CCCOc3cccc4ccccc34)c(C(=O)O)n(CC[N+]3([O-])CCN(C(=O)COc4cccc5c4CN(C4CCC(=O)NC4=O)C5=O)CC3)c12` (stereo not shown) [Compound 224, 1-(2-(2-carboxy-6-chloro-3-(3-(naphthalen-1-yloxy)propyl)-7-(1,3,5-trimethyl-1H-pyrazol-4-yl)-1H-indol-1-yl)ethyl)-4-(2-((2-(2,6-dioxopiperidin-3-yl)-1-oxoisoindolin-4-yl)oxy)acetyl)piperazine 1-oxide] are over 10 µM, at most 0.316 µM and under 0.1 µM.
As for `Cc1nn(C)c(C)c1-c1c(Cl)ccc2c(CCCOc3cccc4cc(F)ccc34)c(C(=O)O)n(CCN3CCN(C(=O)[C@@H](C)Oc4cccc5c4C(=O)N(C4CCC(=O)NC4=O)C5=O)CC3)c12` (stereo partly drawn) [Compound 315, 6-Chloro-1-(2-{4-[(2R)-2-{[2-(2,6-dioxopiperidin-3-yl)-1,3-dioxo-2,3-dihydro-1H-isoindol-4-yl]oxy}propanoyl]piperazin-1-yl}ethyl)-3-{3-[(6-fluoronaphthalen-1-yl)oxy]propyl}-7-(1,3,5-trimethyl-1H-pyrazol-4-yl)-1H-indole-2-carboxylic acid], the results for the IC50 in test [2] and in test [3] were over 3.16 µM and at most 0.0316 µM, respectively. Further, the EC50 in test [4] was under 0.1 µM.
On the same counts, the results for `Cc1cc(C(=O)NC2CCC(=O)NC2=O)c2nc(C)n(CC(=O)N3CCN(CCn4c(C(=O)O)c(CCCOc5cccc6cc(F)ccc56)c5ccc(Cl)c(-c6c(C)nn(C)c6C)c54)CC3)c2c1` (stereo not shown) [Compound 274, 6-Chloro-1-(2-(4-(2-(4-((2,6-dioxopiperidin-3-yl)carbamoyl)-2,6-dimethyl-1H-benzo[d]imidazol-1-yl)acetyl)piperazin-1-yl)ethyl)-3-(3-((6-fluoronaphthalen-1-yl)oxy)propyl)-7-(1,3,5-trimethyl-1H-pyrazol-4-yl)-1H-indole-2-carboxylic acid] are over 10 µM, at most 0.1 µM and under 0.01 µM.
Turning to `Cc1nn(C)c(C)c1-c1c(Cl)ccc2c(CCCOc3cccc4ccccc34)c(C(=O)O)n(CCC3CCN(C(=O)COc4cccc5c4CN(C4CCC(=O)NC4=O)C5=O)CC3)c12` (stereo not shown) [Compound 223, 6-chloro-1-{2-[1-(2-{[2-(2,6-dioxopiperidin-3-yl)-1-oxo-2,3-dihydro-1H-isoindol-4-yl]oxy}acetyl)piperidin-4-yl]ethyl}-3-[3-(naphthalen-1-yloxy)propyl]-7-(1,3,5-trimethyl-1H-pyrazol-4-yl)-1H-indole-2-carboxylic acid], the IC50 in test [2] is over 10 µM; in test [3], at most 0.316 µM. For the same compound, the EC50 in test [4] is under 0.1 µM.
With `Cc1nn(C)c(C)c1-c1c(Cl)ccc2c(CCCOc3cccc4cc(F)ccc34)c(C(=O)O)n(CCN3CCN(C(=O)COc4cccc5c4CN([C@H]4CCC(=O)NC4=O)C5=O)CC3)c12` (single isomer, unassigned) [Compound 296], the IC50 is over 10 µM in test [2] and at most 0.0316 µM in test [3]. Besides, the EC50 in test [4] was under 0.1 µM.
On the same counts, the results for `COc1cc(OCCCc2c(C(=O)O)n(CCN3CCN(C(=O)COc4cccc5c4C(=O)N(C4CCC(=O)NC4=O)C5=O)CC3)c3c(-c4c(C)nn(C)c4C)c(Cl)ccc23)c2ccccc2c1` (stereo not shown) [Compound 218, 6-chloro-1-(2-(4-(2-((2-(2,6-dioxopiperidin-3-yl)-1,3-dioxoisoindolin-4-yl)oxy)acetyl)piperazin-1-yl)ethyl)-3-(3-((3-methoxynaphthalen-1-yl)oxy)propyl)-7-(1,3,5-trimethyl-1H-pyrazol-4-yl)-1H-indole-2-carboxylic acid] are over 10 µM, at most 1 µM and under 0.1 µM.
On the same counts, the results for `Cc1nn(C)c(C)c1-c1c(Cl)ccc2c(CCCOc3cccc4ccccc34)c(C(=O)O)n(CCN3CCN(C(=O)COc4cccc5c4CN(C4CCC(=O)NC4=O)C5=O)CC34CC4)c12` (stereo not shown) [Compound 292, 6-Chloro-1-(2-(7-(2-((2-(2,6-dioxopiperidin-3-yl)-1-oxoisoindolin-4-yl)oxy)acetyl)-4,7-diazaspiro[2.5]octan-4-yl)ethyl)-3-(3-(naphthalen-1-yloxy)propyl)-7-(1,3,5-trimethyl-1H-pyrazol-4-yl)-1H-indole-2-carboxylic acid] are over 10 µM, at most 0.1 µM and under 0.01 µM.
